# Measurements: PMC12663243 (Scientific Reports, 2025)
# Where a name gives a salt, the structure may show the parent alone. Positions of bridges follow the written chain, without caps; N, C: chain ends. Non-standard residues stand in square brackets, D forms with d. Residues, ends and D or L forms follow the SMILES beside them. Hyp = O=C(O)[C@@H]1C[C@@H](O)CN1
# How the values were obtained:
# [1] = target: T1, human SSTR4 (Homo sapiens, UniProt P31391); type: cell-based
# [2] = test system: C57Bl/6j mice; conditions: mouse, in vivo, ip, 5 mg/kg
# [3] = target: human SSTR1 (Homo sapiens, UniProt P30872); type: cell-based
# human SSTR1, sequence (P30872 whole entry): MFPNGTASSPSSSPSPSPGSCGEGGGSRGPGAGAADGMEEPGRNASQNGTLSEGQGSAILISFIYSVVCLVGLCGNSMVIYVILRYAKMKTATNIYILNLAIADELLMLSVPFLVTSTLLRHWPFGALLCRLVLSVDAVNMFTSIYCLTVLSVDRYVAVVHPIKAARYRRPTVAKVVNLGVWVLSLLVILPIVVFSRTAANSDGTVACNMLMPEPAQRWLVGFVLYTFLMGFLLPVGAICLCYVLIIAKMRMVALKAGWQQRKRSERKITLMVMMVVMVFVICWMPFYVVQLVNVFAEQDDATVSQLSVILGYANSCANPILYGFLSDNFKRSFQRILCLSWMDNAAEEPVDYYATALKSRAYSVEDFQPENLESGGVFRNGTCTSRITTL
# [4] = target: T1, human SSTR4; test: cell-based
# [5] = test system: SSTR4; conditions: binding assays ref 48; cited from earlier work
# T1 sequence (P31391 whole entry): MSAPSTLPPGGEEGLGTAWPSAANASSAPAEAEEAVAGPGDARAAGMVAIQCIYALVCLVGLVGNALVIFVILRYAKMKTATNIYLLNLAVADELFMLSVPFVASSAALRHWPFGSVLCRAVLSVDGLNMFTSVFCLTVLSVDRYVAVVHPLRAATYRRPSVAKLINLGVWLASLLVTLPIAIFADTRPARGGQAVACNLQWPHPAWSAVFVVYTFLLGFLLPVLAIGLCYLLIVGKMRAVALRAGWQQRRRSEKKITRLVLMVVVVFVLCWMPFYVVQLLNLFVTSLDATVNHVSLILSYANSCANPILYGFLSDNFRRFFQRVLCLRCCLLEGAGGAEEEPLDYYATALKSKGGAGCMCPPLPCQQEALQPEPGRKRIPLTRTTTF
structure (smiles),measurement,setting,value
CC(C)C[C@H](NC(=O)[C@@H]1C[C@@H](O)CN1C(=O)[C@@H]1CSSC[C@H](NC(=O)[C@H](Cc2ccccc2)NC(=O)[C@@H](N)CC(C)C)C(=O)N[C@H](Cc2c[nH]c3ccccc23)C(=O)N[C@@H](CCCCN)C(=O)N[C@@H](Cc2ccccc2)C(=O)NCC(=O)N1)C(=O)O [Fj1A13] (H-LFC[dW]KFGC[Hyp]L-OH; disulfide 3-8; N-terminus assumed),increase in potency at SSTR4,[1],11 fold
CC(C)[C@H](NC(=O)[C@@H]1CCCN1)C(=O)N[C@H]1CSSC[C@@H](C(=O)N[C@@H](Cc2c[nH]c3ccccc23)C(=O)O)NC(=O)CNC(=O)[C@H](Cc2ccccc2)NC(=O)[C@H](CCCCN)NC(=O)[C@@H](Cc2c[nH]c3ccccc23)NC1=O [Fj1A14] (H-PVC[dW]KFGCW-OH; disulfide 3-8; N-terminus assumed),increase in potency at SSTR4,[1],85 fold
CC(C)[C@H](NC(=O)[C@@H]1CCCN1)C(=O)N[C@H]1CSSC[C@@H](C(=O)N[C@@H](Cc2c[nH]c3ccccc23)C(=O)O)NC(=O)[C@H](CO)NC(=O)[C@H](Cc2ccccc2)NC(=O)[C@H](CCCCN)NC(=O)[C@@H](Cc2c[nH]c3ccccc23)NC1=O [Fj1A18] (H-PVC[dW]KFSCW-OH; disulfide 3-8; N-terminus assumed),effect on SSTR4 potency,[1],well tolerated
CC(C)C[C@H](NC(=O)[C@@H]1C[C@@H](O)CN1C(=O)[C@@H]1CSSC[C@H](NC(=O)[C@@H](NC(=O)[C@@H]2CCCN2)C(C)C)C(=O)N[C@H](Cc2c[nH]c3ccccc23)C(=O)N[C@@H](CCCCN)C(=O)N[C@@H](Cc2ccccc2)C(=O)N[C@@H](CC(N)=O)C(=O)N1)C(=O)O [Fj1A17] (H-PVC[dW]KFNC[Hyp]L-OH; disulfide 3-8; N-terminus assumed),increase in potency at SSTR4,[1],6.8 fold
CC(C)C[C@H](NC(=O)[C@@H]1C[C@@H](O)CN1C(=O)[C@@H]1CSSC[C@H](NC(=O)[C@@H](NC(=O)[C@@H]2CCCN2)C(C)C)C(=O)N[C@H](Cc2c[nH]c3ccccc23)C(=O)N[C@@H](CCCCN)C(=O)N[C@@H](Cc2ccccc2)C(=O)N[C@@H](C)C(=O)N1)C(=O)O [Fj1A4] (H-PVC[dW]KFAC[Hyp]L-OH; disulfide 3-8; N-terminus assumed),increase in potency at SSTR4,[1],6.2 fold
CC(C)C[C@H](NC(=O)[C@@H]1C[C@@H](O)CN1C(=O)[C@@H]1CSSC[C@H](NC(=O)[C@@H](NC(=O)[C@@H]2CCCN2)C(C)C)C(=O)N[C@H](Cc2c[nH]c3ccccc23)C(=O)N[C@@H](CCCCN)C(=O)N[C@@H](Cc2ccccc2)C(=O)N[C@@H](CO)C(=O)N1)C(=O)O [Fj1A15] (H-PVC[dW]KFSC[Hyp]L-OH; disulfide 3-8; N-terminus assumed),increase in potency at SSTR4,[1],14 fold
CC(C)C[C@H](NC(=O)[C@@H]1C[C@@H](O)CN1C(=O)[C@@H]1CSSC[C@H](N)C(=O)N[C@H](Cc2c[nH]c3ccccc23)C(=O)N[C@@H](CCCCN)C(=O)N[C@@H](Cc2ccccc2)C(=O)NCC(=O)N1)C(=O)O [Fj1A10] (H-C[dW]KFGC[Hyp]L-OH; disulfide 1-6; N-terminus assumed),decrease in potency at SSTR4,[1],13 fold
CC(C)[C@H](NC(=O)[C@@H]1CCCN1)C(=O)N[C@H]1CSSC[C@@H](C(=O)N[C@@H](Cc2c[nH]c3ccccc23)C(=O)O)NC(=O)[C@H](CC(N)=O)NC(=O)[C@H](Cc2ccccc2)NC(=O)[C@H](CCCCN)NC(=O)[C@@H](Cc2c[nH]c3ccccc23)NC1=O [Fj1A20] (H-PVC[dW]KFNCW-OH; disulfide 3-8; N-terminus assumed),effect on SSTR4 potency,[1],slight decrease in SSTR4 potency
"CN1CC[C@]23c4c5ccc(O)c4O[C@H]2[C@@H](O)C=C[C@H]3[C@H]1C5 [morphine, morphine sulfate]",duration of action,[2],shorter
same,peak efficacy,[2],higher peak efficacy than Fj1
"NCCCC[C@@H]1NC(=O)[C@@H](Cc2c[nH]c3ccccc23)NC(=O)[C@@H](N)CSSC[C@@H](C(=O)O)NC(=O)CNC(=O)[C@H](Cc2ccccc2)NC1=O [Fj1A9, Cys3-D-Trp4-Lys5-Phe6-Gly7-Cys8] (H-C[dW]KFGC-OH; disulfide 1-6; N-terminus assumed)",decrease in potency at SSTR4,[1],47 fold
CC(C)[C@H](NC(=O)[C@@H]1CCCN1)C(=O)N[C@H]1CSSC[C@@H](C(=O)N[C@@H](Cc2c[nH]c3ccccc23)C(=O)O)NC(=O)[C@H]([C@@H](C)O)NC(=O)[C@H](Cc2ccccc2)NC(=O)[C@H](CCCCN)NC(=O)[C@@H](Cc2c[nH]c3ccccc23)NC1=O [Fj1A19] (H-PVC[dW]KFTCW-OH; disulfide 3-8; N-terminus assumed),effect on SSTR4 potency,[1],slight decrease in SSTR4 potency
CC(C)C[C@H](NC(=O)[C@@H]1CCCN1C(=O)[C@@H]1CSSC[C@H](NC(=O)[C@@H](NC(=O)[C@@H]2CCCN2)C(C)C)C(=O)N[C@H](Cc2c[nH]c3ccccc23)C(=O)N[C@@H](CCCCN)C(=O)N[C@@H](Cc2ccccc2)C(=O)NCC(=O)N1)C(=O)O [Fj1A7] (H-PVC[dW]KFGCPL-OH; disulfide 3-8; N-terminus assumed),effect on SSTR1 potency,[3],increase in SSTR1 potency
same,effect on SSTR4 potency,[1],virtually no effect
CC(C)C[C@H](NC(=O)[C@@H]1C[C@@H](O)CN1C(=O)[C@@H]1CSSC[C@H](NC(=O)[C@@H](NC(=O)[C@@H]2CCCN2)C(C)C)C(=O)N[C@H](Cc2c[nH]c3ccccc23)C(=O)N[C@@H](CCCCN)C(=O)N[C@H](Cc2ccccc2)C(=O)NCC(=O)N1)C(=O)O [Fj1A8] (H-PVC[dW]K[dF]GC[Hyp]L-OH; disulfide 3-8; N-terminus assumed),decrease in potency at SSTR4,[1],42 fold
CC(C)[C@H](NC(=O)[C@@H]1CSSC[C@H](NC(=O)[C@H](CC(N)=O)NC(=O)[C@@H](N)Cc2ccc(O)cc2)C(=O)N[C@@H](Cc2c[nH]cn2)C(=O)N[C@H](Cc2c[nH]c3ccccc23)C(=O)N[C@@H](CCCCN)C(=O)N[C@@H]([C@@H](C)O)C(=O)N1)C(=O)O [Fj2] (H-YNCH[dW]KTCV-OH; disulfide 3-8; N-terminus assumed),EC50,[4],2000 nM
CC(C)[C@H](NC(=O)[C@@H]1CCCN1)C(=O)N[C@H]1CSSC[C@@H](C(=O)O)NC(=O)CNC(=O)[C@H](Cc2ccccc2)NC(=O)[C@H](CCCCN)NC(=O)[C@@H](Cc2c[nH]c3ccccc23)NC1=O [Fj1A11] (H-PVC[dW]KFGC-OH; disulfide 3-8; N-terminus assumed),effect on SSTR4 potency,[1],virtually equipotent
CC(C)C[C@H](NC(=O)[C@@H]1C[C@@H](O)CN1C(=O)[C@@H]1CSSC[C@H](NC(=O)[C@@H](NC(=O)[C@@H]2CCCN2)C(C)C)C(=O)N[C@@H](C)C(=O)N[C@@H](CCCCN)C(=O)N[C@@H](Cc2ccccc2)C(=O)NCC(=O)N1)C(=O)O [Fj1A1] (H-PVCAKFGC[Hyp]L-OH; disulfide 3-8; N-terminus assumed),decrease in potency at SSTR4,[1],5000 fold
CC(C)C[C@H](NC(=O)[C@@H]1C[C@@H](O)CN1C(=O)[C@@H]1CSSC[C@H](NC(=O)[C@@H](NC(=O)[C@@H]2CCCN2)C(C)C)C(=O)N[C@H](Cc2c[nH]c3ccccc23)C(=O)N[C@@H](CCCCN)C(=O)N[C@@H](Cc2ccccc2)C(=O)N[C@@H]([C@@H](C)O)C(=O)N1)C(=O)O [Fj1A16] (H-PVC[dW]KFTC[Hyp]L-OH; disulfide 3-8; N-terminus assumed),effect on SSTR1 potency,[3],slight increase in SSTR1 activity
same,effect on SSTR4 potency,[1],retained the SSTR4 potency of Fj1
CC(C)C[C@H](NC(=O)[C@@H]1C[C@@H](O)CN1C(=O)[C@@H]1CSSC[C@H](NC(=O)[C@@H](NC(=O)[C@@H]2CCCN2)C(C)C)C(=O)N[C@H](Cc2c[nH]c3ccccc23)C(=O)N[C@@H](CCCCN)C(=O)N[C@@H](C)C(=O)NCC(=O)N1)C(=O)O [Fj1A3] (H-PVC[dW]KAGC[Hyp]L-OH; disulfide 3-8; N-terminus assumed),decrease in potency at SSTR4,[1],630 fold
Cc1ccc(S(=O)(=O)N[C@@H](CCN)C(=O)N[C@@H](Cc2ccccc2)C(N)=O)c2ccccc12 [J-2156],selectivity for SSTR4 over SSTR1,[5],approximately 360 fold
same,selectivity for SSTR4 over SSTR5,[5],~390 fold
